Data as given in publication PMC8112869, “Therapeutic inhibition of keratinocyte TRPV3 sensory channel by local anesthetic dyclonine” (eLife, 2021).

Legend:
[1] = test system: T-Rex 293 cells expressing TRPV3 G573C; experiment: Cell death analysis by flow cytometry (propidium iodide), cells expressing G573C mutant; type: cell-based, Homo sapiens
Description: (§1) T-Rex 293 cells were grown in DMEM containing 4.5 mg/ml glucose, 10% (vol/vol) FBS, 50 units/ml penicillin, 50 μg/ml streptomycin, and blasticidin S (10 μg/ml), and were incubated at 37°C in a humidified incubator gassed with 5% CO2. Transfections were performed in wells of a 24-well plate using lipofectamine 2000 (Invitrogen). […] Expression of GFP fluorescence detected by an epifluorescence microscope was used as an indicator of gene expression. After treatments with the compounds for 12 hr, cells were collected, washed twice with PBS, resuspended, and then dyed with propidium iodide (PI, Thermo Fisher Scientific) in the dark according to the manufacturer’s instructions. The membrane integrity of the cells was assessed using a BD FACSCelesta flow cytometer equipped with BD Accuri C6 software (BD Biosciences, USA).

[2] = test system: T-Rex 293 cells expressing TRPV3 G573S; experiment: Cell death analysis by flow cytometry (propidium iodide), cells expressing G573S mutant; type: cell-based, Homo sapiens
Description: as §1

mouse TRPV3 = biological target: T1, mouse TRPV3 (Mus musculus, UniProt Q8K424); experiment: cell-based; conditions: for EC50: EC50 of 2-APB for TRPV3 activation; for TRPV3 currents response, of control level: 100 µM 2-APB, –60 mV, after sensitization
T1 sequence (Q8K424 1-791): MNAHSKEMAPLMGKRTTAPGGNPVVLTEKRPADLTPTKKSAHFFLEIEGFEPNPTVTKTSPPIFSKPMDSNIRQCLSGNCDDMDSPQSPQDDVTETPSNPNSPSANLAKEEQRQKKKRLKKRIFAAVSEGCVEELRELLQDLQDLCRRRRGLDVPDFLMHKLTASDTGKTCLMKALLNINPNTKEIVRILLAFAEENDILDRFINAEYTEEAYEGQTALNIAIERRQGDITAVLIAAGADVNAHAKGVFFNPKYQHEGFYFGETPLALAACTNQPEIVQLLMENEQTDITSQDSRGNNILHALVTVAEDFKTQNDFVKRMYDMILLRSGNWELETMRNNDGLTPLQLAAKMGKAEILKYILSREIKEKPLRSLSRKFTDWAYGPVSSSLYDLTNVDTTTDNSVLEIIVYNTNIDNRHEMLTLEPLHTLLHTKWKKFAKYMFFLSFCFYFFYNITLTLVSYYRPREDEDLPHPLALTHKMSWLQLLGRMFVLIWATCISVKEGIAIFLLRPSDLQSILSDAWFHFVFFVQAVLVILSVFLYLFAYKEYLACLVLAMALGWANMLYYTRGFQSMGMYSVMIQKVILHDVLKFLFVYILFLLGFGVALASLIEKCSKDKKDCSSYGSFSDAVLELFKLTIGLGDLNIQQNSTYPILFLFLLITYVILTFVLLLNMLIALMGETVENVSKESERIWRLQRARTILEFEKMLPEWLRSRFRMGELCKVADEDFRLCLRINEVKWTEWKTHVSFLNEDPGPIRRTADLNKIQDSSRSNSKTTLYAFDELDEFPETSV
From the text: The WT mouse TRPV3 (mTRPV3), human TRPV3 (hTRPV3), rat TRPV1, rat TRPV2, rat TRPM8, and mouse TRPA1 cDNAs were generously provided by Dr. Feng Qin (State University of New York at Buffalo, Buffalo, USA). The GFP-mTRPV3 WT and the mutants (mTRPV3-G573S and mTRPV3-G573C) in pcDNA4/TO vector were gifts from Dr. Michael X Zhu (The University of Texas Health Science Center at Houston, Houston, USA). The WT fTRPV3 was kindly provided by Dr. Makoto Tominaga (Department of Physiological Sciences, SOKENDAI, Okazaki, Japan). All mutations were made using the overlap-extension polymerase chain reaction method as previously described ([Tian et al., 2019]). The resulting mutations were then verified by DNA sequencing. HEK 293T and T-Rex 293 cells were grown in Dulbecco’s modified Eagle’s medium (DMEM, Thermo Fisher Scientific, MA) containing 4.5 mg/ml glucose, 10% heat-inactivated fetal bovine serum (FBS), 50 units/ml penicillin, and […], and were incubated at 37°C in a humidified incubator gassed with 5% CO2. For T-Rex 293, blasticidin S (10 μg/ml) was also included. Cells grown into ~80% confluence were transfected with the desired DNA constructs using either the standard calcium phosphate precipitation method or lipofectamine 2000 (Invitrogen, Carlsbad, CA) following the protocol provided by the manufacturer. Transfected HEK 293T cells were reseeded on 12 mm round glass coverslips coated by poly-L-lysine. Experiments took place ~12–24 hr after transfection.
Conventional whole-cell and excised patch-clamp recording methods were used. For the recombinant expressing system, green fluorescent EGFP was used as a surface marker for gene expression. Recording pipettes were pulled from borosilicate glass capillaries (World Precision Instruments) and fire-polished to a resistance between 2 and 4 MΩ when filled with internal solution containing (in mM) 140 CsCl, 2.0 MgCl2, 5 EGTA, and 10 HEPES, pH 7.4 (adjusted with CsOH). Bath solution contained (in mM): 140 NaCl, 5 KCl, 3 EGTA, and 10 HEPES, pH 7.4 adjusted with NaOH. For recordings in keratinocytes, the bath saline consisted of (in mM) 140 NaCl, 5 KCl, 2 MgCl2, 2 CaCl2, 10 glucoses, and 10 HEPES, pH 7.4 adjusted with NaOH, and the pipette solution contained (in mM) 140 CsCl, 5 EGTA, and 10 HEPES, pH 7.3 adjusted with CsOH. For single-channel recordings, the pipette solution and bath solution were symmetrical and contained (in mM) 140 NaCl, 5 KCl, 3 EGTA, and 10 HEPES, pH 7.4. Isolated cells were voltage clamped and held at –60 mV using an EPC10 amplifier with the Patchmaster software (HEKAElectronics, Lambrecht, Germany). For a subset of recordings, currents were amplified using an Axopatch 200B amplifier (Molecular Devices, Sunnyvale, CA) and recorded through a BNC-2090/MIO acquisition system (National Instruments, Austin, TX) using QStudio developed by Dr. Feng Qin at State University of New York at Buffalo. Whole-cell recordings were typically sampled at 5 kHz and filtered at 1 kHz, and single-channel recordings were sampled at 25 kHz and filtered at 10 kHz. The compensation of pipette series resistance and capacitance was compensated using the built-in circuitry of the amplifier (>80%) to reduce voltage errors. Exchange of external solution was performed using a gravity-driven local perfusion system. […] Dyclonine hydrochloride, MTSET and carvacrol were purchased from MCE (MedChemExpress). Unless otherwise noted, all chemicals were purchased from Sigma (Millipore Sigma, St. Louis, MO). Water-insoluble reagents were dissolved in pure ethanol or DMSO to make a stock solution and diluted into the recording solution at the desired final concentrations before the experiment. […] In the scratching behavior experiments, carvacrol was first dissolved in 10% ethanol and then diluted in normal saline before administration.

[3] = dyclonine (50 μM) or 2-APB (30 μM) alone, averaged from seven experiments
[4] = dyclonine (50 μM) added to 2-APB (30 μM), averaged

Compound | cell death ratio [1, 3] | cell death ratio [2, 3] | initial TRPV3 current (mouse TRPV3; 100 μM 2-APB without dyclonine) [pA/pF] | EC50 (mouse TRPV3; with 3 μM dyclonine) [µM] | EC50 (mouse TRPV3; without dyclonine, after full sensitization) [µM] | repetitions to reach full sensitization level (mouse TRPV3; repeated 100 μM 2-APB alone) | Hill coefficient nH of 2-APB activation (mouse TRPV3; with 3 μM dyclonine) | Hill coefficient nH of 2-APB activation (mouse TRPV3; without dyclonine) | cell death ratio [1, 4] | cell death ratio [2, 4] | IC50 (mouse TRPV3) [µM] | TRPV3 currents response, of control level (mouse TRPV3; 5 µM dyclonine) | TRPV3 currents response, of control level (mouse TRPV3; 10 µM dyclonine) | initial TRPV3 current (mouse TRPV3; 100 μM 2-APB with 5 μM dyclonine) [pA/pF] | Hill coefficient nH of inhibition of TRPV3 currents (mouse TRPV3; 2-APB-evoked, WT mouse TRPV3) | inhibition at 10 µM (mouse TRPV3; HEK-293T, read-out: inhibition of TRPV3 current (reduction in current amplitude)) [%] | repetitions to reach the current level of full sensitization (mouse TRPV3; repeated 100 μM 2-APB with 5 μM dyclonine)
NCCOB(c1ccccc1)c1ccccc1 [2-APB, 2-aminoethoxydiphenyl borate] | 47.91% ± 5.54% | 53.60% ± 5.88% | 86.43 ± 5.9 | 22 ± 0.86 | 22.93 ± 0.02 | approximately eight | 1.7 ± 0.1 | 1.6 ± 0.1 |  |  |  |  |  |  |  |  | 
CCCCOc1ccc(C(=O)CCN2CCCCC2)cc1 [dyclonine] | 14.98% ± 4.40% | 12.45% ± 2.54% |  |  |  |  |  |  | 13.85% ± 2.49% | 17.68% ± 5.66% | 3.2 ± 0.24 | 30% ± 2% | 15% ± 3% | 31.12 ± 2.86 | 2.2 ± 0.32 | 87 | ~ 16 repetitions
